# Experimental data taken from patent publication US20080234262A1 (Wyeth, priority 2007, published 2008).
# Experiments:
# [1] = target: PI3K (Homo sapiens, UniProt P42336); test: Fluorescence polarization assay for PI3K; format: biochemical; conditions: PI3Kα; read-out: PI3Kα IC50;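 further: PI3K kinase reaction on PIP2 with ATP, 30-60 min, product sensed by GST-GRP with red probe in fluorescence polarization (mP), controls without enzyme and at zero time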
# [2] = system: breast line MDA468; test: In vitro cell culture growth assay (MTS), MDA468; format: cell-based, human; conditions: MDA468 cells, three days after drug treatment
# Method in brief: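 Growth measured as percent of same-plate vehicle control by MTS metabolic dye conversion (A490). Breast MDA468 and prostate LNCap cells, plated a day ahead, were exposed to compounds for 3 days.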
# [3] = system: prostate line LNCap; test: In vitro cell culture growth assay (MTS), LNCap; format: cell-based, human; conditions: LNCap cells, three days after drug treatment;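 further: viable cell density read by absorbance at 490 nm, growth expressed as percent of vehicle-treated cells on the same plate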
# Chain of PI3K (P42336 whole entry): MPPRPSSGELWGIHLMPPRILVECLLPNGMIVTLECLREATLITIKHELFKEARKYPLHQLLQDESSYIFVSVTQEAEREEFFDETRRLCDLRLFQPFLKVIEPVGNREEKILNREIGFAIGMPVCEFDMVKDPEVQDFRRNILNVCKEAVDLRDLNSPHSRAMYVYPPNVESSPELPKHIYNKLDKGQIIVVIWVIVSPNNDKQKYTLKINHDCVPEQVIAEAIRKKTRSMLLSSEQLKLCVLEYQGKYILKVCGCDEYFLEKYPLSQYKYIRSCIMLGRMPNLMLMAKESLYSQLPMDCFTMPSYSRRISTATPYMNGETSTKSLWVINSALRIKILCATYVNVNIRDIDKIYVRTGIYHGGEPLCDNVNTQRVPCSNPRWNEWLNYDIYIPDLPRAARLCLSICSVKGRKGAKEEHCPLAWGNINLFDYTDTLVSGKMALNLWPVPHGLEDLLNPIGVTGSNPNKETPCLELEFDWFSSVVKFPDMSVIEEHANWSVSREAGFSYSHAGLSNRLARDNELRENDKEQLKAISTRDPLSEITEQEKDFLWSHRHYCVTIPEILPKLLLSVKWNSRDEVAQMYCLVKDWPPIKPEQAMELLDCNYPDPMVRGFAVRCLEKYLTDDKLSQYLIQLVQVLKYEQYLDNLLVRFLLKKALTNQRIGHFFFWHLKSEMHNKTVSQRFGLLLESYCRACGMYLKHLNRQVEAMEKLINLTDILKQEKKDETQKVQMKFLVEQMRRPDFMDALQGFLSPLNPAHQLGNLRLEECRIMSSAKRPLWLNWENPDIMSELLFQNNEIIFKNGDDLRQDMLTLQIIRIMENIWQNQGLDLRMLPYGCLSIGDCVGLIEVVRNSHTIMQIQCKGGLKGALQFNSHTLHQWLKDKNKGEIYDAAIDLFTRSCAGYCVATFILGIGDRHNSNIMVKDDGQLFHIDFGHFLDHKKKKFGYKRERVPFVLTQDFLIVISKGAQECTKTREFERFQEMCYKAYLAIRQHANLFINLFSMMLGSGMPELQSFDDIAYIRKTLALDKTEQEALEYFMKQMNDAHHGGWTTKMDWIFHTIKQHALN
# Chain of PI3K (P27986 whole entry partner): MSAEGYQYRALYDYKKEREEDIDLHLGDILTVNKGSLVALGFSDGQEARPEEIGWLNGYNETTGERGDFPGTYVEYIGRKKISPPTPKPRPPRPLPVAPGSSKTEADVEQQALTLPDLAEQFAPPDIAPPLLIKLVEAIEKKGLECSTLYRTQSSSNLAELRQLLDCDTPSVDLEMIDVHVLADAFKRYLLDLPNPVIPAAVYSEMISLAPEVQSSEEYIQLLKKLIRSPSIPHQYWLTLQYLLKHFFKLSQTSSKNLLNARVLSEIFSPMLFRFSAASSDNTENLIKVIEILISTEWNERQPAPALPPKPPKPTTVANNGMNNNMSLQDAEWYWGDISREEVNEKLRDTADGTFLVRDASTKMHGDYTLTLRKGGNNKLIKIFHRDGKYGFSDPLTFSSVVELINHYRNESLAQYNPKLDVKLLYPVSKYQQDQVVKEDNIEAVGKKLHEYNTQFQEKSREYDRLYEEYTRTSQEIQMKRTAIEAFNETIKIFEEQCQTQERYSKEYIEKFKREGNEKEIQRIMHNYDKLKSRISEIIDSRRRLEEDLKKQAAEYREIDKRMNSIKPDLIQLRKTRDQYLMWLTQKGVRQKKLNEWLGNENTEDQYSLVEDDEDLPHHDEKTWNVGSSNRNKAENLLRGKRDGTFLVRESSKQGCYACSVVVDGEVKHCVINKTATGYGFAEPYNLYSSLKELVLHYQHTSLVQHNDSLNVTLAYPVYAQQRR
Structure (SMILES),IC50 [1],"IC50 ([2]; Homo sapiens, 72 h)","IC50 ([3]; Homo sapiens, LNCaP, 72 h)",IC50 [2],IC50 [3]
"O=C(Nc1ccc(-c2nc(N3CCOCC3)c3cnn(C4CCN(CC(F)(F)F)CC4)c3n2)cc1)Nc1cccnc1 [Compound 787, 1-(4-{4-morpholin-4-yl-1-[1-(2,2,2-trifluoroethyl)piperidin-4-yl]-1H-pyrazolo[3,4-d]pyrimidin-6-yl}phenyl)-3-pyridin-3-ylurea]",40 nM,140 nM,27 nM,,
"O=C(Nc1ccccc1)Nc1ccc(-c2nc(N3CCOCC3)c3cnn(C4CCN(Cc5cccnc5)CC4)c3n2)cc1 [Example 339, 1-(4-{4-morpholin-4-yl-1-[1-(pyridin-3-ylmethyl)piperidin-4-yl]-1H-pyrazolo[3,4-d]pyrimidin-6-yl}phenyl)-3-phenylurea]",11 nM,200 nM,31 nM,,
Fc1cc(F)cc(-c2nc(N3CCOCC3)c3cnn(C4CCN(Cc5ccccc5)CC4)c3n2)c1 [Compound 88],2190 nM,58000 nM,60000 nM,,
"COC(=O)Nc1ccc(-c2nc(N3CCOCC3)c3cnn(C4CCN(CC(N)=O)CC4)c3n2)cc1 [Compound 456, methyl (4-{1-[1-(2-amino-2-oxoethyl)piperidin-4-yl]-4-morpholin-4-yl-1H-pyrazolo[3,4-d]pyrimidin-6-yl}phenyl)carbamate]",1430 nM,3200 nM,1300 nM,,
"COC(=O)Nc1ccc(-c2nc(N3CCOCC3)c3cnn(C4CCN(C(=O)c5ccccn5)CC4)c3n2)cc1 [Compound 685, methyl (4-{4-morpholin-4-yl-1-[1-(pyridin-2-ylcarbonyl)piperidin-4-yl]-1H-pyrazolo[3,4-d]pyrimidin-6-yl}phenyl)carbamate]",1920 nM,,,580 nM,200 nM
"CNC(=O)Nc1ccc(-c2nc(N3CCOCC3)c3cnn(C4CCN(C(=O)OCCF)CC4)c3n2)cc1 [Compound 878, 2-fluoroethyl 4-(6-{4-[(methylcarbamoyl)amino]phenyl}-4-morpholin-4-yl-1H-pyrazolo[3,4-d]pyrimidin-1-yl)piperidine-1-carboxylate]",54 nM,120 nM,40 nM,,
"O=C(NO)Nc1ccc(-c2nc(N3CCOCC3)c3cnn(C4CCN(Cc5cccnc5)CC4)c3n2)cc1 [Compound 562, 1-hydroxy-3-(4-{4-morpholin-4-yl-1-[1-(pyridin-3-ylmethyl)piperidin-4-yl]-1H-pyrazolo[3,4-d]pyrimidin-6-yl}phenyl)urea]",259 nM,1500 nM,1100 nM,,
"O=C(Nc1ccc(-c2nc(N3CCOCC3)c3cnn(C4CCN(Cc5cccnc5)CC4)c3n2)cc1)Nc1cccs1 [Example 404, 1-(4-{4-morpholin-4-yl-1-[1-(pyridin-3-ylmethyl)piperidin-4-yl]-1H-pyrazolo[3,4-d]pyrimidin-6-yl}phenyl)-3-(2-thienyl)urea]",9 nM,100 nM,27 nM,,
"COCCOC(=O)Nc1ccc(-c2nc(N3CCOCC3)c3cnn(C4CCN(C(=O)OC)CC4)c3n2)cc1 [Compound 902, methyl 4-[6-(4-{[(2-methoxyethoxy)carbonyl]amino}phenyl)-4-morpholin-4-yl-1H-pyrazolo[3,4-d]pyrimidin-1-yl]piperidine-1-carboxylate]",3050 nM,> 60000 nM,3300 nM,,
"CC(=O)Nc1ccc(-c2nc(N3CCOCC3)c3cn[nH]c3n2)cc1 [Compound 233, N-[4-(4-morpholin-4-yl-1H-pyrazolo[3,4-d]pyrimidin-6-yl)phenyl]acetamide]",443 nM,8500 nM,3700 nM,,
O=S(=O)(c1ccccc1)N1CCC(n2ncc3c(N4CCOCC4)nc(-c4ccc5[nH]ccc5c4)nc32)CC1 [Compound 92],4640 nM,2500 nM,8000 nM,,
"O=C(Nc1ccccc1)Nc1ccc(-c2nc(N3CCOCC3)c3cnn(C4CCN(Cc5cccnc5)CC4)c3n2)cc1 [Compound 586, 1-(4-{4-morpholin-4-yl-1-[1-(pyridin-3-ylmethyl)piperidin-4-yl]-1H-pyrazolo[3,4-d]pyrimidin-6-yl}phenyl)-3-phenylurea]",11 nM,220 nM,31 nM,,
"CC(C)C(=O)N1CCC(n2ncc3c(N4CCOCC4)nc(-c4ccc(NC(=O)Nc5cccnc5)cc4)nc32)CC1 [Compound 828, 1-{4-[1-(1-isobutyrylpiperidin-4-yl)-4-morpholin-4-yl-1H-pyrazolo[3,4-d]pyrimidin-6-yl]phenyl}-3-pyridin-3-ylurea]",50 nM,330 nM,120 nM,,
CC(C)OC(=O)Nc1ccc(-c2nc(N3CCOCC3)c3cnn(C4CCN(Cc5ccccc5)CC4)c3n2)cc1 [Compound 208],3790 nM,11000 nM,5800 nM,,
"CCCNC(=O)Nc1ccc(-c2nc(N3CCOCC3)c3cnn(C4CCN(Cc5ccccc5)CC4)c3n2)cc1 [Example 254, 1-{4-[1-(1-benzylpiperidin-4-yl)-4-morpholin-4-yl-1H-pyrazolo[3,4-d]pyrimidin-6-yl]phenyl}-3-propylurea]",341 nM,1500 nM,220 nM,,
"O=C(Nc1ccc(-c2nc(N3CCOCC3)c3cnn(C4CCNCC4)c3n2)cc1)Nc1ccccn1 [Compound 778, 1-[4-(4-morpholin-4-yl-1-piperidin-4-yl-1H-pyrazolo[3,4-d]pyrimidin-6-yl)phenyl]-3-pyridin-2-ylurea]",154 nM,1600 nM,1300 nM,,
"CNC(=O)Nc1ccc(-c2nc(N3CCOCC3)c3cnn(C4CCN(CC(F)(F)F)CC4)c3n2)cc1 [Example 470, 1-methyl-3-(4-{4-morpholin-4-yl-1-[1-(2,2,2-trifluoroethyl)piperidin-4-yl]-1H-pyrazolo[3,4-d]pyrimidin-6-yl}phenyl)urea]",187 nM,300 nM,56 nM,,
NS(=O)(=O)c1ccc(-c2nc(N3CCOCC3)c3cnn(C4CCN(Cc5ccccc5)CC4)c3n2)cc1 [Compound 85],2280 nM,9000 nM,8000 nM,,
CC(C)C(=O)Nc1ccc(-c2nc(N3CCOCC3)c3cnn(C4CCN(Cc5ccccc5)CC4)c3n2)cc1 [Compound 186],3420 nM,3900 nM,4000 nM,,
"O=C(Nc1ccc(-c2nc(N3CCOCC3)c3cnn(C4CCN(Cc5cccnc5)CC4)c3n2)cc1)Nc1ccccn1 [Example 341, 1-(4-{4-morpholin-4-yl-1-[1-(pyridin-3-ylmethyl)piperidin-4-yl]-1H-pyrazolo[3,4-d]pyrimidin-6-yl}phenyl)-3-pyridin-2-ylurea]",91 nM,1800 nM,330 nM,,
O=CNc1ccc(-c2nc(N3CCOCC3)c3cnn(-c4ccccc4)c3n2)cc1 [Compound 118],122 nM,20000 nM,7000 nM,,
CC(=O)NCc1cccc(-c2nc(N3CCOCC3)c3cnn(-c4ccccc4)c3n2)c1 [Compound 145],583 nM,21000 nM,5500 nM,,
"CC(C)(C)OC(=O)N1CCC(n2ncc3c(N4CCOCC4)nc(-c4ccc(NC(=O)NCCO)cc4)nc32)CC1 [Compound 766, tert-butyl 4-[6-(4-{[(2-hydroxyethyl)carbamoyl]amino}phenyl)-4-morpholin-4-yl-1H-pyrazolo[3,4-d]pyrimidin-1-yl]piperidine-1-carboxylate]",364 nM,410 nM,180 nM,,
"O=C(Nc1ccccc1)Nc1cc(F)c(-c2nc(N3CCOCC3)c3cnn(C4CCN(C(=O)c5cccnc5)CC4)c3n2)cc1F [Example 469, 1-(2,5-difluoro-4-{4-morpholin-4-yl-1-[1-(pyridin-3-ylcarbonyl)piperidin-4-yl]-1H-pyrazolo[3,4-d]pyrimidin-6-yl}phenyl)-3-phenylurea]",173 nM,600 nM,170 nM,,
"COC(=O)N1CCC(n2ncc3c(N4CCOCC4)nc(-c4ccc(NC(=O)OCCO)cc4)nc32)CC1 [Compound 901, methyl 4-[6-(4-{[(2-hydroxyethoxy)carbonyl]amino}phenyl)-4-morpholin-4-yl-1H-pyrazolo[3,4-d]pyrimidin-1-yl]piperidine-1-carboxylate]",557 nM,280 nM,30 nM,,
CCn1ncc2c(N3CCOCC3)nc(-c3cccc(O)c3)nc21 [Compound 97],18 nM,1300 nM,310 nM,,
O=C(Nc1cccnc1)N1CCC(n2ncc3c(N4CCOCC4)nc(-c4ccc5[nH]ccc5c4)nc32)CC1 [Compound 132],311 nM,1200 nM,300 nM,,
"CNC(=O)Nc1ccc(-c2nc(N3CCOCC3)c3cnn(C4CCN(Cc5cnccc5OC)CC4)c3n2)cc1 [Example 391, 1-[4-(1-{1-[(4-methoxypyridin-3-yl)methyl]piperidin-4-yl}-4-morpholin-4-yl-1H-pyrazolo[3,4-d]pyrimidin-6-yl)phenyl]-3-methylurea]",82 nM,200 nM,70 nM,,
"CNC(=O)Nc1ccc(-c2nc(N3CCOCC3)c3cnn(C4CCN(Cc5ccccc5C)CC4)c3n2)cc1 [Compound 673, 1-methyl-3-(4-{1-[1-(2-methylbenzyl)piperidin-4-yl]-4-morpholin-4-yl-1H-pyrazolo[3,4-d]pyrimidin-6-yl}phenyl)urea]",50 nM,,,180 nM,40 nM
"CC(C)(C)OC(=O)N1CCC(n2ncc3c(N4CCOCC4)nc(-c4ccc(NC(=O)Nc5nccs5)cc4)nc32)CC1 [Compound 884, tert-butyl 4-(4-morpholin-4-yl-6-{4-[(1,3-thiazol-2-ylcarbamoyl)amino]phenyl}-1H-pyrazolo[3,4-d]pyrimidin-1-yl)piperidine-1-carboxylate]",264 nM,1600 nM,260 nM,,
